Patent US8273771B2, “Ischemic disorder or disease inhibitors” (Pronas Pharma AB, priority 2007, dated 2012)

Key:
Format in all cases: in vivo, rat
rats with induced SAH = experiment: Cortical blood flow measured with Laser Doppler; details: intracisternal injection
Source text: Subarachnoid hemorrhage was induced by a model originally devised by Svendgaard et al and carefully described by Prunell et al (2003). Male Sprague-Dawley rats (350-400 g) were anaesthetized using 5% halothane (Halocarbon Laboratories, River Edge, N.J.) in N2O/O2 (30:70). The rat was intubated and artificially ventilated with inhalation of 0.5-1.5% halothane in N2O/O2 (70:30) during the surgical procedure. The depth of anaesthesia was carefully monitored and the respiration checked by regularly withdrawing arterial blood samples for blood gas analysis (Radiometer, Copenhagen, Denmark). An electric temperature probe was inserted into the rectum of the rat to record the temperature, which was maintained at 37° C. An arterial catheter to measure blood pressure was placed in the tail artery and a catheter to monitor intracranial pressure (ICP) was placed in the subarachnoid space under the subocciptal membrane. At either side of the skull, 3 mm from the midline and 4 mm anteriorly from the bregma, holes were drilled through the skull bone down to dura mater (without perforation) allowing the placement of two laser-Doppler flow probes to measure cortical CBF. Finally, a 27G blunt canula with side hole was introduced 6.5 mm anterior to bregma in the midline at an angle of 30° to the vertical. […]

ETB receptor protein = experiment: Immunohistochemistry of cerebral arteries after SAH; details: smooth muscle cell layer; sham 100±3%, SAH 167±4%
Source text: (§1) The MCA and BA were dissected out and then placed onto Tissue TEK (Gibco) and frozen. They were then sectioned into 10 μm thick slices. The primary antibodies used were rabbit antihuman ETB (IBL, 16207), diluted 1:400, goat anti mouse 5-HT1B (Santa Cruz Biotechnologies, sc-1461), diluted 1:100, AT1 (Santa Cruz Biotechnologies), diluted 1:100, mouse anti rat CD31 (Serotec, MCA1746), diluted 1:200, and mouse anti rat smooth muscle actin (Serotec, MCA1905T) diluted 1:100. All dilutions were done in PBS with 10% fetal calf serum. The secondary antibodies used were donkeyantimouse Cy™5 conjugated (JacksonImmunoResearch, 715-175-150) 1:100, donkeyantirabbit Cy™3 conjugated (JacksonImmunoResearch, 711-165-152) 1:100 in PBS with 10% fetal calf serum. The antibodies were detected at the appropriate wavelength in a confocal microscopy (Zeiss, USA). As control, only secondary antibodies were used.
(§2) The images were analysed using the ImageJsoftware (http://rsb.info.nih.gov/ij/). The fluorescence in 4-6 different areas in each artery was measured and a mean value was calculated. These values are presented as percentage fluorescence in the SAH groups compared to the sham group, where the sham group is set to 100%.

AT1 receptor protein = experiment: as above; details: smooth muscle cell layer; sham 100±7%, SAH 168±7%
Source text: as §1, §2

effect of injection alone on cortical blood flow measured with Laser Doppler (rats with induced SAH) | SMILES | ETB receptor protein level, fluorescence compared to sham (ETB receptor protein) [%] | AT1 receptor protein level, fluorescence compared to sham (AT1 receptor protein) [%]
no effect | Cn1cc(C2=C(c3cn(CCCN)c4ccccc34)C(=O)NC2=O)c2ccccc21 [RO-31-7549] | – | –
– | Oc1cc(-c2nc(-c3ccccc3)[nH]c2-c2ccncc2)ccc1Cl [SB386023-b] | 109±5 | 105±10
